Measured values: ChEMBL document CHEMBL5230084, “Indole-based derivatives as potential antibacterial activity against methicillin-resistance Staphylococcus aureus (MRSA)” (Eur J Med Chem, 2020)
In brackets after ≈: the same amount, converted by molar mass.

Legend:
[1] = tested on: Staphylococcus aureus; assay: Antibacterial activity against methicillin-resistant Staphylococcus aureus; assay type: functional
[2] = tested on: Staphylococcus aureus; assay: Antibacterial activity against Staphylococcus aureus assessed as inhibition of bacterial growth; assay type: functional
[3] = Cytotoxicity against human HKC-8 cells assessed as inhibition of cell growth; assay type: toxicity, cell-based
[4] = Cytotoxicity against human HepG2 cells assessed as inhibition of cell growth; assay type: toxicity, cell-based
[5] = Cytotoxicity against human MKN-28 cells assessed as inhibition of cell growth; assay type: toxicity, cell-based
[6] = tested on: Staphylococcus aureus; assay: Antibacterial activity methicillin-resistant Staphylococcus aureus ST-5457 assessed as inhibition of bacterial growth incubated for 16 to 24 hrs by broth microdilution assay; assay type: functional; conditions: time 16-24 hrs
[7] = tested on: Staphylococcus aureus; assay: Antibacterial activity methicillin-resistant Staphylococcus aureus ST-3151 assessed as inhibition of bacterial growth incubated for 16 to 24 hrs by broth microdilution assay; assay type: functional; conditions: time 16-24 hrs
[8] = tested on: Staphylococcus aureus; assay: Antibacterial activity methicillin-resistant Staphylococcus aureus B-10732 assessed as inhibition of bacterial growth incubated for 16 to 24 hrs by broth microdilution assay; assay type: functional; conditions: time 16-24 hrs
[9] = tested on: Staphylococcus aureus; assay: Antibacterial activity methicillin-resistant Staphylococcus aureus B-10760 assessed as inhibition of bacterial growth incubated for 16 to 24 hrs by broth microdilution assay; assay type: functional; conditions: time 16-24 hrs
[10] = tested on: Staphylococcus aureus; assay: Antibacterial activity methicillin-resistant Staphylococcus aureus ST-10342 assessed as inhibition of bacterial growth incubated for 16 to 24 hrs by broth microdilution assay; assay type: functional; conditions: time 16-24 hrs
[11] = tested on: Staphylococcus aureus; assay: Antibacterial activity methicillin-resistant Staphylococcus aureus ST-2438 assessed as inhibition of bacterial growth incubated for 16 to 24 hrs by broth microdilution assay; assay type: functional; conditions: time 16-24 hrs
[12] = tested on: Staphylococcus aureus; assay: Antibacterial activity methicillin-resistant Staphylococcus aureus P-6642 assessed as inhibition of bacterial growth incubated for 16 to 24 hrs by broth microdilution assay; assay type: functional; conditions: time 16-24 hrs
[13] = tested on: Staphylococcus aureus; assay: Antibacterial activity methicillin-resistant Staphylococcus aureus ST-2071 assessed as inhibition of bacterial growth incubated for 16 to 24 hrs by broth microdilution assay; assay type: functional; conditions: time 16-24 hrs
[14] = tested on: Staphylococcus aureus; assay: Antibacterial activity methicillin-resistant Staphylococcus aureus MTCC-96 assessed as inhibition of bacterial growth incubated for 16 to 24 hrs by broth microdilution assay; assay type: functional; conditions: time 16-24 hrs
[15] = tested on: Staphylococcus aureus; assay: Antibacterial activity methicillin-resistant Staphylococcus aureus ST-1745 assessed as inhibition of bacterial growth incubated for 16 to 24 hrs by broth microdilution assay; assay type: functional; conditions: time 16-24 hrs
[16] = tested on: Staphylococcus aureus; assay: Antibacterial activity methicillin-resistant Staphylococcus aureus P-8029 assessed as inhibition of bacterial growth incubated for 16 to 24 hrs by broth microdilution assay; assay type: functional; conditions: time 16-24 hrs
[17] = Inhibition of methicillin-resistant Staphylococcus aureus pyruvate kinase
[18] = tested on: Staphylococcus aureus; assay: Antibacterial activity against methicillin-resistant Staphylococcus aureus 252 assessed as inhibition of bacterial growth; assay type: functional
[19] = tested on: Staphylococcus aureus; assay: Antibacterial activity against methicillin-resistant Staphylococcus aureus 8 assessed as inhibition of bacterial growth; assay type: functional
[20] = tested on: Staphylococcus aureus; assay: Antibacterial activity against methicillin-resistant Staphylococcus aureus 12 assessed as inhibition of bacterial growth; assay type: functional
[21] = tested on: Staphylococcus aureus; assay: Antibacterial activity against methicillin-resistant Staphylococcus aureus 6 assessed as inhibition of bacterial growth; assay type: functional
[22] = tested on: Staphylococcus aureus; assay: Antibacterial activity against methicillin-resistant Staphylococcus aureus 4 assessed as inhibition of bacterial growth; assay type: functional
[23] = tested on: Staphylococcus aureus; assay: Antibacterial activity against methicillin-resistant Staphylococcus aureus 9 assessed as inhibition of bacterial growth; assay type: functional
[24] = tested on: Staphylococcus aureus; assay: Antibacterial activity against methicillin-resistant Staphylococcus aureus 3 assessed as inhibition of bacterial growth; assay type: functional
[25] = tested on: Staphylococcus aureus; assay: Antibacterial activity against methicillin-resistant Staphylococcus aureus 11 assessed as inhibition of bacterial growth; assay type: functional
[26] = tested on: Staphylococcus aureus; assay: Antibacterial activity against Staphylococcus aureus ATCC 25923 assessed as inhibition of bacterial growth by agar well diffusion method; assay type: functional
[27] = Cytotoxicity against human A549 cells assessed as inhibition of cell growth; assay type: toxicity, cell-based
[28] = Cytotoxicity against human HeLa cells assessed as inhibition of cell growth; assay type: toxicity, cell-based
[29] = Cytotoxicity against human PC-3 cells assessed as inhibition of cell growth; assay type: toxicity, cell-based

For COc1ccc(-c2occ3ccc4c(c(Br)cn4C(C)(C)C)c23)cc1, the MIC [1] was 1.4 mg/L (≈ 3.51 µM).

In the case of O=C(c1ccc(F)cc1)C1C(c2ccc(Br)cc2)CNC12C(=O)Nc1ccccc12 (configuration not stated), the MIC [2] is reported as 40 mg/L (≈ 86 µM).

In the case of Nc1nnc(Cc2c[nH]c3ccccc23)s1, the MIC [1] is reported as 3.12 mg/L (≈ 13.6 µM).

CC(=O)/C(=C\c1cn(CC(=O)N2CCCCC2)c2ccccc12)n1c([N+](=O)[O-])cnc1C showed an MIC [1] of 1 mg/L (≈ 2.3 µM).

Molecule Clc1ccc2nc(-c3c[nH]c4ccc(Br)cc34)ccc2c1 has an MIC [1] of 0.62 mg/L (≈ 1.73 µM).

Work on N=C(N)N/N=C/c1cn(S(=O)(=O)c2ccccc2)c2ccc(-c3ccc(OC(F)(F)F)cc3)cc12 yielded an MIC [1] of 3.13 mg/L (≈ 6.24 µM).

For S=C=NCCn1ccc2ccccc21, the IC50 [3] was 2 mg/L (≈ 9.89 µM), the IC50 [4] was 2 mg/L (≈ 9.89 µM) and the MIC [1] was 8 mg/L (≈ 39.5 µM). The IC50 [5] was 2 mg/L (≈ 9.89 µM).

Work on CCCCn1cc(Br)c2c3c(-c4ccc(Cl)cc4)onc3ccc21 yielded an MIC [1] of 5 mg/L (≈ 12.4 µM).

Oc1ccc(C(c2c[nH]c3ccc(Br)cc23)c2c[nH]c3ccc(Br)cc23)cc1 showed an MIC [1] of 1 mg/L (≈ 2.02 µM).

Work on O=C(/C=C/c1c[nH]c2ccccc12)c1cccc(OCc2ccccc2)c1 yielded an MIC [6] of 12.5 mg/L (≈ 35.4 µM), an MIC [7] of 12.5 mg/L (≈ 35.4 µM) and an MIC [8] of 12.5 mg/L (≈ 35.4 µM). The MIC [9] was 12.5 mg/L (≈ 35.4 µM), the MIC [10] was 12.5 mg/L (≈ 35.4 µM) and the MIC [11] was 12.5 mg/L (≈ 35.4 µM). The MIC [12] was 12.5 mg/L (≈ 35.4 µM), the MIC [13] was 12.5 mg/L (≈ 35.4 µM) and the MIC [14] was 12.5 mg/L (≈ 35.4 µM). The MIC [15] was 12.5 mg/L (≈ 35.4 µM) and the MIC [16] was 12.5 mg/L (≈ 35.4 µM).

Work on c1ccc(Nc2nnc(Cc3c[nH]c4ccccc34)s2)cc1 yielded an MIC [1] of 25 mg/L (≈ 81.6 µM).

Work on O=C(C1=N[C@H](c2c[nH]c3cc(Br)ccc23)CN1)c1c[nH]c2cc(O)ccc12 yielded an IC50 [17] of 0.016 µM.

For Clc1ccc(C(c2c[nH]c3ccc(Br)cc23)c2c[nH]c3ccc(Br)cc23)cc1, the MIC [1] was 1 mg/L (≈ 1.94 µM).

Molecule Oc1cccc(C(c2c[nH]c3ccc(Br)cc23)c2c[nH]c3ccc(Br)cc23)c1 has an MIC [1] of 1 mg/L (≈ 2.02 µM).

For CC(C)(C)OC(=O)NCC(NC(=O)c1c[nH]c2ccc(Br)cc12)c1c[nH]c2ccc(Br)cc12 (configuration not stated), the MIC [18] was 2 mg/L (≈ 3.47 µM).

Molecule Cc1ccc(C(=O)CC2C[C@H](n3c(-c4cc5ccccc5n4S(=O)(=O)c4ccc(C)cc4)c(CC(=O)OCc4ccccc4)c4ccccc43)O[C@@H]2COC(=O)c2ccc(C)cc2)cc1 (some centres not stated) has an MIC [19] of 3 mg/L (≈ 3.39 µM), an MIC [20] of 3 mg/L (≈ 3.39 µM) and an MIC [21] of 3 mg/L (≈ 3.39 µM). For the same molecule, the MIC [22] was 3 mg/L (≈ 3.39 µM), the MIC [23] was 3 mg/L (≈ 3.39 µM) and the MIC [24] was 3 mg/L (≈ 3.39 µM). It also gave an MIC [25] of 3 mg/L (≈ 3.39 µM).

Work on Clc1ccc2nc(-c3c[nH]c4ccc(Cl)cc34)ccc2c1 yielded an MIC [1] of 0.62 mg/L (≈ 1.98 µM).

With Fc1ccc2c(-c3ccc4cc(Cl)ccc4n3)c[nH]c2c1 the MIC [1] was 0.62 mg/L (≈ 2.09 µM).

Work on N=C(N)N/N=C/c1cn(S(=O)(=O)c2ccccc2)c2ccc(-c3ccc(F)c(Cl)c3)cc12 yielded an MIC [1] of 3.13 mg/L (≈ 6.66 µM).

O=C(NCC(NC(=O)C(=O)c1c[nH]c2ccc(Br)cc12)c1c[nH]c2ccc(Br)cc12)OC(F)(F)F (configuration not stated) gave an MIC [18] of 1 mg/L (≈ 1.62 µM).

For O=C(C1=NC(c2c[nH]c3cc(Br)ccc23)CN1)c1c[nH]c2ccccc12 (configuration not stated) [SPONGOTINE A], the IC50 [17] was 0.016 µM.

In the case of CCCn1cc(Br)c2c3c(-c4ccc(OC)cc4)occ3ccc21, the MIC [1] is reported as 1.4 mg/L (≈ 3.64 µM).

For CC(C)(C)n1cc(Br)c2c3c(-c4ccc(Cl)cc4)onc3ccc21, the MIC [1] was 4.3 mg/L (≈ 10.7 µM).

With CC(NC(=O)C(=O)c1c[nH]c2ccc(Br)cc12)c1c[nH]c2ccc(Br)cc12 (configuration not stated) the MIC [18] was 2 mg/L (≈ 4.09 µM).

For CCCCn1cc(Br)c2c3c(-c4ccc(OC)cc4)occ3ccc21, the MIC [1] was 1.4 mg/L (≈ 3.51 µM).

With O=C(O)c1cn(C2CC2)c2cc(N3CCNCC3)c(F)cc2c1=O [CIPROFLOXACIN] the MIC [2] was 20 mg/L (≈ 60.4 µM) and the MIC [26] was 0.3 mg/L (≈ 0.905 µM).

In the case of O=C1NC[C@@H](c2c[nH]c3cc(Br)ccc23)N[C@H]1c1c[nH]c2ccccc12, the IC50 [17] is reported as 0.016 µM.

Work on O=[N+]([O-])c1ccc(C(c2c[nH]c3ccc(Br)cc23)c2c[nH]c3ccc(Br)cc23)cc1 yielded an MIC [1] of 1 mg/L (≈ 1.9 µM), an IC50 [27] of 4.5 µM and an IC50 [28] of 2.7 µM. The IC50 [29] was 3.9 µM.

COc1ccc(C2C([N+](=O)[O-])C(c3ccccc3)NC23C(=O)N(Cc2ccccc2)c2ccccc23)cc1 (configuration not stated) gave an MIC [26] of 5 mg/L (≈ 9.89 µM).
